Results on nine molecules are retold here after patent US8846719B2, “Isoxazolo-pyridine derivatives” (Roche Palo Alto LLC, priority 2007, dated 2014).

This assay concerns the target human GABA A receptor α5β3γ2 (Homo sapiens (Human), UniProt P18507+P31644). Nature of the assay: [3H]flumazenil competition binding assay, human GABA A α5β3γ2 receptors expressed in HEK293 cells. The following applies: human receptor; displacement of [3H]flumazenil (0.5 nM); means of two determinations; read-out: hKi GABAAa5. An outline of the steps: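 Ki values, each the mean of two runs, derive from displacement of [3H]flumazenil from human α5β3γ2 GABA A receptors transiently expressed in HEK293 membranes. Binding ran 1 h at 4° C in Krebs-tris, pH 7.5, before filter harvest and scintillation counting.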
For orientation: In a radioligand displacement assay an active substance lowers the binding of a labelled ligand.

Turning to `Cc1onc(-c2cccc(Cl)c2)c1COc1ccc(C(=O)NC2CC2)cn1` [Example 100, 6-[3-(3-Chloro-phenyl)-5-methyl-isoxazol-4-ylmethoxy]-N-cyclopropyl-nicotinamide], the Ki amounted to 7.6 nM.

For `Cc1ccc(-c2noc(C)c2COc2ccc(C(=O)NC(C)C)cn2)cc1` [Example 252, N-Isopropyl-6-(5-methyl-3-p-tolyl-isoxazol-4-ylmethoxy)-nicotinamide], the Ki was determined as 1 nM.

Turning to `O=C(NCC1(O)CC1)c1ccc(OCc2conc2-c2ccc(F)cc2)nc1` [Example 339, 6-[3-(4-Fluoro-phenyl)-isoxazol-4-ylmethoxy]-N-(1-hydroxy-cyclopropylmethyl)-nicotinamide], the Ki is 23.1 nM.

Regarding `Cc1onc(-c2ccccc2)c1COc1ccc(C(=O)NC2CCCN(CC(=O)NC3CCOCC3)C2)cn1` (stereo not drawn) [Example 46, 6-(5-Methyl-3-phenyl-isoxazol-4-ylmethoxy)-N-{1-[(tetrahydro-pyran-4-ylcarbamoyl)-methyl]-piperidin-3-yl}-nicotinamide], the Ki was 13.1 nM.

On to `Cc1onc(-c2ccc(Cl)cc2)c1COc1ccc(C(=O)NC(C)(C)CO)cn1` [Example 254, 6-[3-(4-Chloro-phenyl)-5-methyl-isoxazol-4-ylmethoxy]-N-(2-hydroxy-1,1-dimethyl-ethyl)-nicotinamide], for which the Ki stood at 4.1 nM.

As for `O=C(NCC1CC1)c1ccc(OCc2conc2-c2ccccn2)nc1` [Example 361, N-Cyclopropylmethyl-6-(3-pyridin-2-yl-isoxazol-4-ylmethoxy)-nicotinamide], the Ki is 19 nM.

Regarding `COC(=O)c1ccc(OCc2c(-c3ccccc3)noc2C)nc1` [Example 7, 6-(5-Methyl-3-phenyl-isoxazol-4-ylmethoxy)-nicotinic acid methyl ester], the Ki is 14.2 nM.

Consider `Cc1onc(-c2ccc(Cl)cc2)c1COc1ccc(C(=O)N[C@H](C)CO)cn1` [Example 256, 6-[3-(4-Chloro-phenyl)-5-methyl-isoxazol-4-ylmethoxy]-N—((R)-2-hydroxy-1-methyl-ethyl)-nicotinamide], for which the Ki worked out at 0.8 nM.

Turning to `CC(C)NC(=O)c1ccc(OCc2conc2-c2ccccc2)nc1` [Example 321, N-Isopropyl-6-(3-phenyl-isoxazol-4-ylmethoxy)-nicotinamide], the Ki was 21.4 nM.
